Several values for one entry are separate records, joined by “and”; a condition that tells them apart may be missing. Equal entries are not always repeated.
Test system: Acinetobacter baumannii ST15
Assay: MIC determination, fixed concentration of sBLI (Examples 11-18)
Format: cell-based
Settings: NDM-1, OXA-51, ADC-263, caMHB
Method: Antimicrobial susceptibility testing (AST) by broth microdilution (MIC determination) was performed according to The European Committee on Antimicrobial Susceptibility Testing (EUCAST) guidelines (see Reading guide for broth microdilution Version 5.0, 2024: https://www.eucast.org).
For combinations containing meropenem as the antibiotic, Sensititre™ FINMER meropenem 64-0.03 μg/mL plates (Thermo Fischer Diagnostics custom plates; YFINMER) were used in most of the experiments. For other antibiotics (and for meropenem whenever a higher start concentration than 64 μg/mL was needed) sterile clear round bottom polystyrene (non-treated) 96-well microplates (Corning 3788) were used for making serial two-fold dilutions of the antibiotic in cation-adjusted Mueller Hinton II broth (caMHB; Thermo Scientific, T3462, containing 29.4 μM Zn^2+ or MILLIPORE, 90922-500G, containing 5.6 μM Zn^2+), across the columns of the microtiter plate (128-0.06 μg/mL; columns 1-12).
The checkerboard plates were all modified by adding a serine β-lactamase inhibitor (sBLI) at a fixed concentration of 16 μg/mL. Additionally, the zinc chelator was added at various fixed concentrations. Samples were mixed so that all plates contained a control containing antibiotic alone (no sBLI, no zinc chelator), a sample containing antibiotic and sBLI (double combination; no zinc chelator), and a sample containing antibiotic, sBLI and zinc chelator (triple combination). All test wells used in each plate contained growth medium (caMHB), and inoculated bacteria at a final inoculum between 3-7×10^5 CFU/mL. […] Synergy for the triple combination (antibiotic, sBLI, and zinc chelator) was defined as when the MIC in any of the rows containing the zinc chelator in combination with antibiotic and sBLI (triple combination), was lower than for antibiotic alone and lower than for the antibiotic and sBLI double combination.
An X in rows 1~4 in the table indicates growth of the bacterial inoculum, while a blank cell indicates no growth. Concentrations (μg/mL) of MEM are given in row 0. SUL and the zinc chelator were added in fixed concentrations (SUL at 16 μg/mL in rows 2-4, zinc chelator at 16 μg/mL in row 3 and at 8 μg/mL in row 4). As a control, the effect of MEM alone was tested (row 1). All wells contained bacterial growth medium (caMHB, 29.4 μM Zn^2+) and were inoculated with the test bacterium. The grey cells indicate the meropenem MIC.
An X in rows 1~4 in the table indicates growth of the bacterial inoculum, while a blank cell indicates no growth. Concentrations (μg/mL) of AMOX are given in row 0. SUL and the zinc chelator were added in fixed concentrations (SUL at 16 μg/mL in rows 2-4, zinc chelator at 16 μg/mL in row 3 and at 8 μg/mL in row 4). As a control, the effect of AMOX alone was tested (row 1). All wells contained bacterial growth medium (caMHB, 29.4 μM Zn^2+) and were inoculated with the test bacterium. The grey cells indicate the amoxicillin MIC.
Two technical replicates were performed for each sample. An X in rows 1-8 in the table indicates growth of the bacterial inoculum, while a blank cell indicates no growth. Concentrations (μg/mL) of AMP are given in row 0. SUL and the zinc chelator were added in fixed concentrations (SUL at 16 μg/mL in rows 3-8, zinc chelator at 16 μg/mL in rows 5-6 and at 8 μg/mL in rows 7-8). As a control, the effect of AMP alone was tested (rows 1-2). All wells contained bacterial growth medium (caMHB, 29.4 μM Zn^2+) and were inoculated with the test bacterium. […]

CN(C[C@H](O)[C@@H](O)[C@H](O)[C@H](O)CO)C(=O)c1ccc(CN(Cc2ccccn2)Cc2ccccn2)nc1 [zinc chelator]
Synergy with the zinc chelator observed at concentration (Example 11, with MEM and SUL 16 μg/mL, 29.4 μM Zn2+): 16 µg/mL
Synergy with the zinc chelator observed at concentration (Example 12, with AMOX and SUL 16 μg/mL, 29.4 μM Zn2+): 16 µg/mL
Synergy with the zinc chelator observed at concentration (Example 13, with AMP and SUL 16 μg/mL, 29.4 μM Zn2+): 16 µg/mL
Synergy with the zinc chelator observed at concentration (Example 14, with PIP and TAZ 16 μg/mL, 29.4 μM Zn2+): 16 µg/mL and 8 µg/mL
Synergy with the zinc chelator observed at concentration (Example 18, with PIP and TAZ 16 μg/mL, 5.6 μM Zn2+): 16 µg/mL and 8 µg/mL
